Laboratory results published in patent publication US8383681B2, “Droxidopa and pharmaceutical composition thereof for the treatment of mood disorders, sleep disorders or attention deficit disorders” (Chelsea Therapeutics, Inc., priority 2008, dated 2013).
“Also recorded” adds a separate entry of the source.

Tests used:
male CD-1 mice = experiment: murine Forced Swim Test (FST), a mouse model of depression; format: in vivo; conditions: intraperitoneal; for effect on length of time spent immobile / depression, in words: doses per Table 1, ANOVA followed by T-test, versus vehicle; for length of time the mice spent immobile (average time immobile): one hour after dosing, immobility within the last 4 minutes of 6 minutes, mg/kg per Table 1: desipramine 10, entacapone 30, fluoxetine 18, venlafaxine 10, amitriptyline 10, droxidopa 400, carbidopa 20
Procedure: The effect of droxidopa, alone or in combination with other drugs, in the treatment of depression was evaluated using the murine Forced Swim Test (FST), a mouse model of depression commonly used to evaluate antidepressive drugs. Depression (i.e., “learned helplessness” as evaluated by the FST model) was measured using the method of Porsolt et al., Arch. Int. Pharmacodyn. (1977), 229: 327-336. Briefly, male CD-1 mice weighing 22 g (±2 g) were fasted overnight prior to testing. The mice were randomized into 11 groups of 10 mice each. Mice in each group were treated with the vehicle alone, a drug, or a drug composition as outlined in Table 1 and returned to their respective groups.
In Table 1, the vehicle—2% TWEEN® 80 (i.e., polysorbate 80)—was included in all test compositions. One hour after dosing, the test mice were placed in a 1 liter volume glass beaker (height: 14.5 cm, diameter: 10.5 cm) containing water 6 cm in height at room temperature (22 to 24° C.) for 6 minutes. The duration of animal immobility within the last 4 minutes was then recorded. A mouse was judged to be immobile when it ceased struggling and remained floating in the water making only those movements necessary to keep its head above water. Data were analyzed by ANOVA for significant differences in group means, followed by T-test to distinguish statistically significant groups as appropriate.

MAO-A = target: T1, MAO-A (Homo sapiens, UniProt P21397); conditions: MAO-A versus MAO-B; cited from earlier work
T1 sequence (P21397 1-527): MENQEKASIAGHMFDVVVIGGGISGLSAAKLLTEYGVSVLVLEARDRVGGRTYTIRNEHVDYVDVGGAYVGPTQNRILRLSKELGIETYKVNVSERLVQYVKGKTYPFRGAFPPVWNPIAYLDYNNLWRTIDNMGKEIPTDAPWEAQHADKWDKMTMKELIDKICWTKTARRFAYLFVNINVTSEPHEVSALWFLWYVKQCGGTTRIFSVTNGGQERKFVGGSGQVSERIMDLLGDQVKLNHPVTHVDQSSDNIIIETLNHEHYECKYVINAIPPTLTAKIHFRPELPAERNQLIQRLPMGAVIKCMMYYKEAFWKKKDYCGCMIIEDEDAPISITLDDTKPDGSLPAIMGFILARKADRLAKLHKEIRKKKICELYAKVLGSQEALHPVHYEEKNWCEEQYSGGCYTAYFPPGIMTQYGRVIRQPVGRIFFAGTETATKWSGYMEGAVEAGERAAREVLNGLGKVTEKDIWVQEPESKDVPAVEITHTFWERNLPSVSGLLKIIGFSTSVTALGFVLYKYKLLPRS

Structure (SMILES) | effect on length of time spent immobile / depression, in words (male CD-1 mice) | length of time the mice spent immobile (average time immobile) (male CD-1 mice) [s] | selectivity for MAO-A than MAO-B (MAO-A)
CN(C)CCC=C1c2ccccc2CCc2ccccc21 [amitriptyline] | significant decrease | 60.0 | –
CNCCCN1c2ccccc2CCc2ccccc21 [desipramine] | did not significantly decrease; also recorded: failed to decrease depression | 136.4 | –
CCN(CC)C(=O)/C(C#N)=C/c1cc(O)c(O)c([N+](=O)[O-])c1 [entacapone, (E)-2-cyano-N,N-diethyl-3-(3,4-dihydroxy-5-nitrophenyl)propenamide] | did not significantly decrease | 129.9 | –
CNCCC(Oc1ccc(C(F)(F)F)cc1)c1ccccc1 (centres unmarked) [fluoxetine] | did not significantly decrease; also recorded: failed to decrease depression | 158.2 | –
O=C(NCCN1CCOCC1)c1ccc(Cl)cc1 [moclobemide] | – | – | approximately three times more selective for MAO-A than MAO-B
COc1ccc(C(CN(C)C)C2(O)CCCCC2)cc1 (centres unmarked) [venlafaxine] | did not significantly decrease; also recorded: failed to decrease depression | 117.5 | –
